Data on 17 compounds can be found in patent US20240043420A1, “7-AZAINDOLE COMPOUNDS FOR INHIBITION OF BCR-ABL TYROSINE KINASES” (EnLiven Therapeutics, Inc., priority 2020, published 2024).

One experiment deals with HL60 cells. Nature of the experiment: HL60 cell proliferation assay (CellTiter-Glo). It counts as cell-based. Conditions: Homo sapiens, HL-60, 72 h, CellTiter-Glo viability, read-out: Cell Line (IC50, nM) HL60. A digest of the protocol: (§1)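 Cells in IMDM/10% FBS seeded at 2,000 (K562) or 1,500 (HL60) per well, exposed to serially diluted compounds for 72 h at 37 °C, 5% CO2. Viability by CellTiter-Glo luminescence, normalized between DMSO (high) and cell-free media (low) controls.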
A general note: In ATP-based viability assays light output follows the ATP content of the culture.

The next experiment concerns the target ABL1 (T315I) (Homo sapiens, UniProt P00519, T315I). Nature of the experiment: Luminescence-based ABL kinase assay (ADP-Glo, 300 μM ATP), T315I mutant. It counts as biochemical. A digest of the protocol:
(§2)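 ABL1 (3.325 nM in the enzyme solution) was preincubated with compound for 30 min at RT in HEPES pH 7.5 buffer with MgCl2, EGTA, DTT, BSA and Brij-35. Adding Peptide 2 and ATP (6 μM and 1.2 mM in the start solution) began a 90 min RT reaction. ADP-Glo luminescence gave % activity and IC50.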

The next experiment concerns pCRKL in K562 cells. The experiment is described as follows: pCRKL ELISA assay in K562 cells. Conditions: Homo sapiens, 1.5 h, 90 minutes incubation, read-out: PCRKL ELISA, Cell Line IC50 (nM) K562. The class given is cell-based. The protocol: K562 or Ba/F3 ABL T315I cells (2.0*10^5 cells/100 μl/well) were seeded in 96 well (Corning, cat #3799). Compounds were dissolved in DMSO, serially diluted in DMSO and then were added, mixed, and incubated for 90 minutes at 37° C., 5% CO2. Following the 90-minute incubation, plates were centrifuged for 5 min at 3000 RPM and supernatant was removed from each well. Cells were washed 3 times with 150 μl PBS prior to addition of 100 μl cell RIPA lysis buffer (Boston BioProducts, cat #BP-115D) supplied with 1×complete ULTRA cocktail inhibitor (Roche, 05892791001) and 1×PhosSTOP Phosphatase Inhibitor Cocktail Tablets (Roche, 04906837001). Cells were incubated with lysis buffer for 1 hour at 4° C. prior to storage at −80 C.
A capture antibody able to detect phosphorylated and non-phosphorylated CRKL (R&D Systems, cat #AF5127) was added to Meso Scale Discovery (MSD) standard bind plates (MSD, cat #L15XA-3) at 5 ug/mL and incubated at 4° C. overnight. The next day, plates were washed with PBS+0.05% Tween20 (PBST) and 150 μl of 5% BSA blocking solution was added for 1 hour at room temperature with shaking. Plates were washed with PBST. Lysates were thawed and 30 μl of lysate was added to the MSD plates and incubated for 2 hours at room temperature with shaking. MSD plates were washed with PBST and 30 μl of a detection antibody that binds phosphorylated pCRKL (R&D Systems, cat #MAB6910) was added at 1 μg/mL to each well. Plates were incubated for 1 hour at room temperature with shaking. Plates were washed with PBST prior to addition of 30 μl of a sulfo tagged goat anti mouse detection antibody (MSD cat #R32AC-1). Plates were incubated for 1 hour at room temperature with shaking. Plates were washed with PBST prior to addition of 150 ul of 1×MSD read buffer T (MSD, cat 4R92TC-2). Electrochemiluminescence (ECLU) was read on an MSD plate reader (Meso Scale Discovery). The remaining activity by calculated as follows: 00 Relative activity=100×(ELCUsample−ECLULC)/(ECLUHC−ECLULC). The low and high controls (LC/HC) are generated from lysate from wells without cells or with cells treated with 0.1% DMSO, respectively. IC50 values were calculated using XLFit software using a nonlinear regression model with a sigmoidal dose response and are shown in Table 4 and Table 5 below.

Another experiment deals with T1, ABL1 (Homo sapiens, UniProt P00519).
T1 construct: purchased Carna Biosciences
Nature of the experiment: Luminescence-based ABL kinase assay (ADP-Glo, 300 μM ATP). The class given is biochemical. A digest of the protocol:
as §2

The next experiment has as its system K562 cells. The experiment is described as follows: K562 cell proliferation assay (CellTiter-Glo). It counts as cell-based. Conditions: Homo sapiens, K562, 72 h, CellTiter-Glo viability, read-out: Cell Line (IC50, nM) K562. A digest of the protocol: as §1

What is called IC50 is the concentration that inhibits the measured activity by half. For `COc1ccccc1-c1c[nH]c2nc(NC(=O)NCCN3CCN(C)CC3)ccc12` [Compound 42, 3-[3-(2-methoxyphenyl)-1H-pyrrolo[2,3-b]pyridin-6-yl]-1-[2-(4-methylpiperazin-1-yl)ethyl]urea], the IC50 in the experiment with HL60 cells was greater than 10000 nM; on ABL1 (T315I), 12.7 nM; in the experiment with pCRKL in K562 cells, 88.3 nM; against ABL1, 45.4 nM; in the experiment with K562 cells, 254 nM.

Turning to `COc1cccc(OC)c1-c1c[nH]c2nc(NC(=O)NCCCN(C)C)ccc12` [Compound 131, 1-[3-(2,6-dimethoxyphenyl)-1H-pyrrolo[2,3-b]pyridin-6-yl]-3-[3-(dimethylamino)propyl]urea], the IC50 in the experiment on HL60 cells was greater than 10000 nM; on ABL1 (T315I) it was 28.1 nM; in the experiment with pCRKL in K562 cells it was 272 nM; at ABL1 it was 42.7 nM; with K562 cells, 83.3 nM.

Take `COc1cccc(F)c1-c1n[nH]c2nc(NC(=O)[C@@H]3C[C@@H]3F)ccc12` [Compound 66, (1S,2S)-2-fluoro-N-[3-(2-fluoro-6-methoxyphenyl)-1H-pyrazolo[3,4-b]pyridin-6-yl]cyclopropane-1-carboxamide]: the IC50 in the experiment with HL60 cells was greater than 10000 nM; at ABL1 (T315I) it was 38.7 nM; in the experiment with pCRKL in K562 cells it was 702 nM; on ABL1 it was 91.5 nM; in the experiment with K562 cells it was 603 nM.

`COc1cc2cn[nH]c2cc1-c1c[nH]c2nc(NC(=O)[C@@H]3C[C@@H]3F)ccc12` [Compound 58, (1S,2S)-2-fluoro-N-[3-(5-methoxy-1H-indazol-6-yl)-1H-pyrrolo[2,3-b]pyridin-6-yl]cyclopropane-1-carboxamide]: the IC50 in the experiment on HL60 cells was greater than 10000 nM; at ABL1 (T315I), 3.4 nM; with pCRKL in K562 cells, 281 nM; on ABL1, 2.92 nM; in the experiment with K562 cells, 132 nM.

Consider `O=C(Nc1ccc2c(-c3ccc4nccn4c3)c[nH]c2n1)C1CC1` [Compound 56, N-(3-(imidazo[1,2-a]pyridin-6-yl)-1H-pyrrolo[2,3-b]pyridin-6-yl)cyclopropanecarboxamide], for which the half-maximal inhibitory concentration (IC50) was 120 nM in the experiment on HL60 cells; 53.5 nM on ABL1 (T315I); 745 nM in the experiment with pCRKL in K562 cells; 30.3 nM on ABL1; 183 nM in the experiment with K562 cells.

As for `CCOc1ncccc1-c1c[nH]c2nc(NC(=O)[C@@H]3C[C@@H]3F)ccc12` [Compound 62, (1S,2S)—N-(3-(2-ethoxypyridin-3-yl)-1H-pyrrolo[2,3-b]pyridin-6-yl)-2-fluorocyclopropane-1-carboxamide], the IC50 was greater than 10000 nM in the experiment on HL60 cells; 43 nM at ABL1 (T315I); 171 nM with pCRKL in K562 cells; 20.8 nM at ABL1; 137 nM with K562 cells.

Take `COc1ncccc1-c1n[nH]c2nc(NC(=O)[C@@H]3C[C@@H]3F)ccc12` [Compound 77, (1S,2S)-2-fluoro-N-[3-(2-methoxypyridin-3-yl)-1H-pyrazolo[3,4-b]pyridin-6-yl]cyclopropane-1-carboxamide]: the IC50 in the experiment with HL60 cells is greater than 10000 nM; against ABL1 (T315I), 137 nM; with pCRKL in K562 cells it was 1120 nM; at ABL1 it was 106 nM; in the experiment with K562 cells it was 727 nM.

Turning to `COc1ccc(F)c(OC)c1-c1c[nH]c2nc(NC(=O)NCCN3CCN(C)CC3)ccc12` [Compound 145, 3-[3-(3-fluoro-2,6-dimethoxyphenyl)-1H-pyrrolo[2,3-b]pyridin-6-yl]-1-[2-(4-methylpiperazin-1-yl)ethyl]urea], the IC50 was greater than 10000 nM with HL60 cells; 44.3 nM against ABL1 (T315I); 399 nM with pCRKL in K562 cells; 51.6 nM against ABL1; 120 nM with K562 cells.

In the case of `COc1cc2[nH]ncc2cc1-c1c[nH]c2nc(NC(=O)[C@@H]3C[C@@H]3F)ccc12` [Compound 50, (1S,2S)-2-fluoro-N-[3-(6-methoxy-1H-indazol-5-yl)-1H-pyrrolo[2,3-b]pyridin-6-yl]cyclopropane-1-carboxamide], the IC50 was greater than 10000 nM in the experiment on HL60 cells; 2.51 nM against ABL1 (T315I); 151 nM with pCRKL in K562 cells; 3.9 nM at ABL1; 120 nM with K562 cells.

Turning to `COc1cccc(OC)c1-c1c[nH]c2nc(NC(=O)NCCN3CCNCC3)ccc12` [Compound 135, 3-[3-(2,6-dimethoxyphenyl)-1H-pyrrolo[2,3-b]pyridin-6-yl]-1-[2-(piperazin-1-yl)ethyl]urea], the IC50 in the experiment with HL60 cells is greater than 10000 nM; on ABL1 (T315I) it was 15.8 nM; with pCRKL in K562 cells, 1210 nM; on ABL1 it was 24.9 nM; in the experiment on K562 cells, 165 nM.

Regarding `COc1cc2[nH]cnc2cc1-c1c[nH]c2nc(NC(=O)[C@@H]3C[C@@H]3F)ccc12` [Compound 49, (1S,2S)-2-fluoro-N-[3-(6-methoxy-1H-1,3-benzodiazol-5-yl)-1H-pyrrolo[2,3-b]pyridin-6-yl]cyclopropane-1-carboxamide], the 50% inhibitory concentration (IC50) with HL60 cells is greater than 10000 nM; against ABL1 (T315I), 3.04 nM; in the experiment on pCRKL in K562 cells it was 585 nM; against ABL1 it was 4.33 nM; in the experiment on K562 cells, 295 nM.

For the compound `COc1c(-c2c[nH]c3nc(NC(=O)C4CC4)ccc23)ccc2[nH]cnc12` [Compound 15, N-[3-(4-methoxy-1H-1,3-benzodiazol-5-yl)-1H-pyrrolo[2,3-b]pyridin-6-yl]cyclopropanecarboxamide], the concentration for half-maximal inhibition (IC50) is 1710 nM with HL60 cells; 2.78 nM at ABL1 (T315I); 468 nM in the experiment on pCRKL in K562 cells; 12.1 nM at ABL1; 181 nM in the experiment on K562 cells.

For the compound `COc1nc2nc[nH]c2cc1-c1c[nH]c2nc(NC(=O)C3CC3)ccc12` [Compound 61, N-(3-[5-methoxy-1H-imidazo[4,5-b]pyridin-6-yl]-1H-pyrrolo[2,3-b]pyridin-6-yl)cyclopropanecarboxamide], the IC50 with HL60 cells is greater than 10000 nM; at ABL1 (T315I), 5.08 nM; in the experiment on pCRKL in K562 cells it was 88.4 nM; on ABL1, 3.28 nM; in the experiment on K562 cells, 36.9 nM.

In the case of `[2H]C([2H])([2H])Oc1ccccc1-c1n[nH]c2nc(NC(=O)[C@@H]3C[C@@H]3F)ccc12` [Compound 101, (1S,2S)-2-fluoro-N-(3-(2-(methoxy-d3)phenyl)-1H-pyrazolo[3,4-b]pyridin-6-yl)cyclopropane-1-carboxamide], the IC50 in the experiment on HL60 cells is greater than 10000 nM; against ABL1 (T315I), 15.3 nM; against ABL1 it was 16.4 nM; with K562 cells, 94.2 nM.

Regarding `COc1cc2sncc2cc1-c1c[nH]c2nc(NC(=O)[C@@H]3C[C@@H]3F)ccc12` [Compound 84, (1S,2S)-2-fluoro-N-[3-(6-methoxy-1,2-benzothiazol-5-yl)-1H-pyrrolo[2,3-b]pyridin-6-yl]cyclopropane-1-carboxamide], the IC50 is greater than 10000 nM in the experiment on HL60 cells, 14.9 nM against ABL1 (T315I), 37 nM against ABL1 and 150 nM in the experiment on K562 cells.

For the compound `CNCCCNC(=O)Nc1ccc2c(-c3c(OC)cccc3OC)c[nH]c2n1` [Compound 130, 1-[3-(2,6-dimethoxyphenyl)-1H-pyrrolo[2,3-b]pyridin-6-yl]-3-[3-(methylamino)propyl]urea], the IC50 is greater than 10000 nM in the experiment with HL60 cells, 33.7 nM against ABL1 (T315I), 67 nM against ABL1 and 169 nM in the experiment on K562 cells.

Consider `O=C(Nc1ccc2c(-c3ccc4nccn4c3)c[nH]c2n1)[C@@H]1C[C@@H]1F` [Compound 71, (1S,2S)-2-fluoro-N-(3-[imidazo[1,2-a]pyridin-6-yl]-1H-pyrrolo[2,3-b]pyridin-6-yl)cyclopropane-1-carboxamide], for which the IC50 in the experiment with HL60 cells came out at 334 nM; against ABL1 (T315I) it was 55.2 nM; at ABL1, 48 nM; in the experiment on K562 cells it was 292 nM.
